Experimental findings from patent US7223759B2, “Antibacterial 3,5-diaminopiperidine-substituted aromatic and heteroaromatic compounds” (Anadys Pharmaceuticals, Inc., priority 2003, dated 2007) are described below.

The test system of the first test is Escherichia coli (ATCC25922) or Staphylococcus aureus (ATCC25923). In words: Antibacterial MIC, microdilution method in Mueller-Hinton medium. It counts as cell-based. The note with it: Escherichia coli, 18 h, MIC in E. coli or S. aureus; two-fold serial dilutions 64 to 0.5 μg/ml in duplicate; 18 hours of incubation at 35° C.; read-out: Potency (MIC). In outline: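 Two-fold serial dilutions from 64 to 0.5 μg/ml, in duplicate, by broth microdilution in Mueller-Hinton medium (NCCLS M7-A5). MIC taken as the lowest concentration preventing visible growth after 18 h at 35° C.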
Background: In broth dilution the organism is exposed to a series of concentrations in liquid medium.
Usually MIC stands for the least concentration at which growth counts as inhibited. Take `Cc1ccc(C(=O)Nc2ccc(Nc3nc(N4CC(N)C4)nc(N4C[C@H](N)C[C@H](N)C4)n3)cc2O)cc1.Cl` [N-{4-[4-(3-Amino-azetidin-1-yl)-6-((3R,5S)-3,5-diamino-piperidin-1-yl)-[1,3,5]triazin-2-ylamino]-2-hydroxy-phenyl}-4-methyl-benzamide]: the minimum inhibitory concentration (MIC) is < 64 µg/mL. Regarding `C#Cc1cccc(Nc2nc(N3CCCCC3)nc(N3CCCCC3)n2)c1.Cl` [N-(3-ethylnyl-phenyl)-4,6-Bis-((3R,5S)-3,5-diamino-piperidin-1-yl)-[1,3,5]triazine-2-amine], the minimum inhibitory concentration (MIC) is > 64 µg/mL. For the compound `Cc1cc(Cl)ccc1CNc1nc(N2CCCCC2)nc(N2CCCCC2)n1.Cl` [N-(4-chloro-2-methyl-benzyl)-44,6-Bis-((3R,5S)-3,5-diamino-piperidin-1-yl)-[1,3,5]triazine-2-amine], the MIC was > 64 µg/mL. As for `Cl.O=C(CC(O)c1ccc(Nc2nc(N3CCCCC3)nc(N3CCCCC3)n2)cc1)Nc1ccccc1C(F)(F)F` [N-{4-[1-hydroxy-2-(2-trifluoromethyl-phenylcarbazmoyl)-ethyl]-phenyl}-4,6-Bis-((3R,5S)-3,5-diamino-piperidin-1-yl)-[1,3,5]triazine-2-amine], the minimum inhibitory concentration (MIC) was < 64 µg/mL.

The same test, now with this note: Escherichia coli, 18 h, read-out: Potency (MIC).
For `N[C@@H]1C[C@H](N)CN(c2nc(Nc3ccc(NC(=O)c4cc(OC(F)(F)F)ccc4O)c(O)c3)nc(N3C[C@H](N)C[C@H](N)C3)n2)C1` [N-[3-hydroxy-4-(2-hydroxy-5-trifluoromethoxy-benzoylamino)-phenyl]-4,6-Bis-((3R,5S)-3,5-diamino-piperidin-1-yl)-[1,3,5]triazine-2-amine], the minimum inhibitory concentration (MIC) was < 16 µg/mL. Take `COc1cccc(C(=O)Nc2ccc(Nc3nc(N4C[C@H](N)C[C@H](N)C4)nc(N4C[C@H](N)C[C@H](N)C4)n3)cc2O)c1O` [N-[3-hydroxy-4-(2-hydroxy-3-methoxy-benzoylamino)-phenyl]-4,6-Bis-((3R,5S)-3,5-diamino-piperidin-1-yl)-[1,3,5]triazine-2-amine]: the MIC was < 16 µg/mL.

For the compound `N[C@@H]1C[C@H](N)CN(c2nc(Nc3ccc(NC(=O)c4c(O)ccc5ccccc45)c(Cl)c3)nc(N3C[C@H](N)C[C@H](N)C3)n2)C1` [N-{3-chloro-4-[(2-hydroxy-naphthalene-1-carbonyl)-amino]-phenyl}-4,6-Bis-((3R,5S)-3,5-diamino-piperidin-1-yl)-[1,3,5]triazine-2-amine], the minimal inhibitory concentration (MIC) was < 16 µg/mL. For `Cc1cc(Nc2nc(N3C[C@H](N)C[C@H](N)C3)nc(N3C[C@H](N)C[C@H](N)C3)n2)ccc1NC(=O)c1cccc([N+](=O)[O-])c1O` [N-[4-(2-hydroxy-3-nitro-benzoylamino)-3-methyl-phenyl]-4,6-Bis-((3R,5S)-3,5-diamino-piperidin-1-yl)-[1,3,5]triazine-2-amine], the minimal inhibitory concentration (MIC) was < 64 µg/mL. Same read-out and setting: for `N[C@@H]1C[C@H](N)CN(c2nc(Nc3ccc(NC(=O)c4ccc(Cl)cc4O)c(Br)c3)nc(N3C[C@H](N)C[C@H](N)C3)n2)C1` [N-[3-bromo-4-(4-chloro-2-hydroxy-benzoylamino)-phenyl]-4,6-Bis-((3R,5S)-3,5-diamino-piperidin-1-yl)-[1,3,5]triazine-2-amine] the value was < 16 µg/mL.

For the compound `N[C@@H]1C[C@H](N)CN(c2nc(NCc3ccc(Oc4ccccc4)cc3)nc(N3C[C@H](N)C[C@H](N)C3)n2)C1` [N-(4-phenoxy-benzyl)-4,6-Bis-((3R,5S)-3,5-diamino-piperidin-1-yl)-[1,3,5]triazine-2-amine], the MIC was > 64 µg/mL.

For the compound `Cc1ccc(C(=O)Nc2ccc(Nc3nc(N4C[C@H](N)C[C@H](N)C4)nc(N4C[C@@H](N)C[C@H]4CN)n3)cc2O)cc1` [N-{4-[4-((2S,4S)-4-Amino-2-aminomethyl-pyrrolidin-1-yl)-6-((3R,5S)-3,5-diamino-piperidin-1-yl)-[1,3,5]triazin-2-ylamino]-2-hydroxy-phenyl}-4-methyl-benzamide], the minimum inhibitory concentration (MIC) is < 64 µg/mL.

With `N[C@@H]1C[C@H](N)CN(c2nc(Nc3ccc(NC(=O)c4ccc(Cl)cc4O)c(C(F)(F)F)c3)nc(N3C[C@H](N)C[C@H](N)C3)n2)C1` [N-[4-(4-chloro-2-hydroxy-benzoylamino)-3-trifluoromethyl-phenyl]-4,6-Bis-((3R,5S)-3,5-diamino-piperidin-1-yl)-[1,3,5]triazine-2-amine], the minimal inhibitory concentration (MIC) was < 16 µg/mL. As to `N[C@@H]1C[C@H](N)CN(c2nc(Nc3ccc(NS(=O)(=O)c4ccccc4)c(O)c3)nc(N3C[C@H](N)C[C@H](N)C3)n2)C1` [N-(4-benzenesulfonylamino-3-hydroxy-phenyl)-4,6-Bis-((3R,5S)-3,5-diamino-piperidin-1-yl)-[1,3,5]triazine-2-amine], the minimal inhibitory concentration (MIC) was < 64 µg/mL. The same measure, in the same setting: then `Cc1ccc(C(=O)Nc2ccc(Nc3nc(N4C[C@H](N)C[C@H](N)C4)nc(N4C[C@H](N)C[C@H](N)C4)n3)cc2O)cc1` [N-[3-hydroxy-4-(4-methyl-benzoylamino)-phenyl]-4,6-Bis-((3R,5S)-3,5-diamino-piperidin-1-yl)-[1,3,5]triazine-2-amine], with < 16 µg/mL; and `Cc1ccc(S(=O)(=O)N(Cc2ccccc2)c2ccc(Nc3nc(N4C[C@H](N)C[C@H](N)C4)nc(N4C[C@@H](O)[C@@H](O)C4)n3)cc2O)cc1` [N-Benzyl-N-{4-[4-((3R,5S)-3,5-diamino-piperidin-1-yl)-6-((3R,4S)-3,4-dihydroxy-pyrrolidin-1-yl)-[1,3,5]triazin-2-ylamino]-2-hydroxy-phenyl}-4-methyl-benzenesulfonamide], with < 64 µg/mL. As to `Cc1ccc(S(=O)(=O)N(Cc2ccccc2)c2ccc(Nc3nc(N4C[C@H](N)C[C@H](N)C4)nc(N4C[C@H](O)C[C@H]4CN)n3)cc2O)cc1` [N-{4-[4-((2S,4R)-2-Aminomethyl-4-hydroxy-pyrrolidin-1-yl)-6-((3R,5S)-3,5-diamino-piperidin-1-yl)-[1,3,5]triazin-2-ylamino]-2-hydroxy-phenyl}-N-benzyl-4-methyl-benzenesulfonamide], the MIC was < 64 µg/mL. Turning to `N[C@@H]1C[C@H](N)CN(c2cc(Nc3ccc([N+](=O)[O-])cc3)cc(N3C[C@H](N)C[C@H](N)C3)c2)C1` [(3,5-Bis-((3R,5S)-3,5-diamino-piperidin-1-yl)-phenyl)-(4-nitro-phenyl)-amine], the MIC was > 64 µg/mL. Turning to `N[C@@H]1C[C@H](N)CN(c2nc(Nc3ccc(C(=O)CC(=O)Nc4ccc(F)c(F)c4)cc3)nc(N3C[C@@H](N)C[C@H]3CO)n2)C1` [3-{4-[4-((2S,4S)-4-Amino-2-hydroxymethyl-pyrrolidin-1-yl)-6-((3R,5S)-3,5-diamino-piperidin-1-yl)-[1,3,5]triazin-2-ylamino]-phenyl}-N-(3,4-difluoro-phenyl)-3-oxo-propionamide], the MIC is < 64 µg/mL. With `N[C@@H]1C[C@H](N)CN(c2nc(Nc3cccc([N+](=O)[O-])c3)nc(N3C[C@H](N)C[C@H](N)C3)n2)C1` [N-(3-nitro-phenyl)-4,6-Bis-((3R,5S)-3,5-diamino-piperidin-1-yl)-[1,3,5]triazine-2-amine], the MIC was > 64 µg/mL. On the same count and under the same terms, then `N[C@@H]1C[C@H](N)CN(c2nc(Nc3ccc(NC(=O)c4c(O)ccc5ccccc45)c(O)c3)nc(N3C[C@H](N)C[C@H](N)C3)n2)C1` [N-{3-hydroxy-4-[(2-hydroxy-naphthalene-1-carbonyl)-amino]-phenyl}-4,6-Bis-((3R,5S)-3,5-diamino-piperidin-1-yl)-[1,3,5]triazine-2-amine], with < 16 µg/mL. `COc1ccc(S(=O)(=O)Nc2ccc(Nc3nc(N4C[C@H](N)C[C@H](N)C4)nc(N4C[C@H](N)C[C@H](N)C4)n3)cc2O)cc1OC` [N-[4-(3,4-dimethoxy-benzenesulfonylamino)-3-hydroxy-phenyl]-4,6-Bis-((3R,5S)-3,5-diamino-piperidin-1-yl)-[1,3,5]triazine-2-amine]: the MIC is > 64 µg/mL. With `CC(=O)c1ccc(Nc2nc(N3C[C@H](N)C[C@H](N)C3)nc(N3C[C@@H](N)C[C@H]3CO)n2)cc1` [1-{4-[4-((2S,4S)-4-Amino-2-hydroxymethyl-pyrrolidin-1-yl)-6-((3R,5S)-3,5-diamino-piperidin-1-yl)-[1,3,5]triazin-2-ylamino]-phenyl}-ethanone], the MIC was > 64 µg/mL. Turning to `N[C@@H]1C[C@H](N)CN(c2nc(Nc3ccc4c(c3)-c3ccccc3C4=O)nc(N3C[C@@H](N)C[C@@H](O)C3)n2)C1` [3-[4-((3S,5R)-3-Amino-5-hydroxy-piperidin-1-yl)-6-((3S,5R)-3,5-diamino-piperidin-1-yl)-[1,3,5]triazin-2-ylamino]-fluoren-9-one], the MIC is < 16 µg/mL. Turning to `COc1cccc(C(=O)Nc2ccc(Nc3nc(N4C[C@H](N)C[C@H](N)C4)nc(N4C[C@H](N)C[C@H](N)C4)n3)cc2)c1O` [N-[4-(2-hydroxy-3-methoxy-benzoylamino)-phenyl]-4,6-Bis-((3R,5S)-3,5-diamino-piperidin-1-yl)-[1,3,5]triazine-2-amine], the MIC is < 64 µg/mL. In the case of `N[C@@H]1C[C@H](N)CN(c2nc(NNc3ccccc3)nc(N3C[C@H](N)C[C@H](N)C3)n2)C1` [N-(4,6-Bis-((3R,5S)-3,5-diamino-piperidin-1-yl)-[1,3,5]triazin-2-yl)-N′-Phenyl-hydrazine], the MIC was > 64 µg/mL. Turning to `N[C@@H]1C[C@H](N)CN(c2nc(Nc3ccc(C(=O)CC(=O)Nc4cccc(C(F)(F)F)c4)cc3)nc(N3C[C@H](N)C[C@H](N)C3)n2)C1` [N-{4-[2-(3-trifluoromethyl-phenylcarbamoyl)-acetyl]-phenyl}-4,6-Bis-((3R,5S)-3,5-diamino-piperidin-1-yl)-[1,3,5]triazine-2-amine], the MIC was < 16 µg/mL. `N[C@@H]1C[C@H](N)CN(c2nc(Nc3ccc4ccccc4c3)nc(N3C[C@H](N)C[C@H](N)C3)n2)C1` [N-naphthalene-2-yl-4,6-Bis-((3R,5S)-3,5-diamino-piperidin-1-yl)-[1,3,5]triazine-2-amine]: the MIC was < 64 µg/mL.

Still in this test, the particulars now being: MIC in E. coli or S. aureus; two-fold serial dilutions 64 to 0.5 μg/ml in duplicate; 18 hours of incubation at 35° C.
As for “N-(4-acetylamino-3,5-dichloro-phenyl)-4,6-Bis-0((3R,5S)-3,5-diamino-piperidin-1-yl)-[1,3,5]triazine-2-amine”, the “Potency (MIC)” value is listed as “− (− means MIC>64 μg/ml in E. coli or S. aureus)”.
